Measurements from patent US20240142467A1, “Use of Biomarkers in the Treatment of Fibrotic Conditions with a PDE4B-inhibitor” (Boehringer Ingelheim International GmbH, priority 2022, published 2024).

Tested on: bleomycin-induced lung fibrosis
Assay: Rat bleomycin model of pulmonary fibrosis
Assay type: in vivo, Wistar rats
Experimental: Pulmonary remodeling was induced in rats by a single intratracheal administration of 1 mg/kg bleomycin.
Adult, test-naïve, male Wistar rats (WI(Han)); 280-300 g) were purchased from Janvier (Janvier Labs, Le Genest-Saint-Isle, France). All animal experimentation was conducted in accordance with German national guidelines and legal regulations and approved by the ethical committee Regierungspräsidium Tübingen (Germany) (Permit Number: 12-012).
Bleomycin was dissolved in phosphate buffered saline (PBS) to a final concentration of […]. On day 0, animals were transiently anaesthetised with isoflurane (3-4%) in oxygen. Using a 1 ml-Syringe with a 22-gauge flexible cannula, 200 μL/kg of either saline or bleomycin (final dose 1 mg/kg) were administered intratracheally.
The PDE4-inhibitor of formula A′ was dissolved in 0.5% hydroxyethyl cellulose containing 0.01% Tween20 and applied by oral gavage at a dose of 2.5 mL/kg twice daily at 06:00 and 18:00 from day 10 until day 20.
On day 18, animals were anaesthetized using 3-4% isoflurane and placed on the μCT (Quantum FX) scanner mounting plate. After measurement, animals were returned to the home cage for recovery. During imaging, synchronization procedures were employed for avoidance of motion blur (respiration, heart beat) thereby improving the quality of the images. The reconstruction of the three-dimensional pictures from the raw data could subsequently be performed.
Animals were anaesthetised with Narcoren (60 mg/mL/kg body weight i.p.) and Ketamine (0.5-1 mg/animal, i.m.). The trachea was exposed, a small incision made, and a tracheal tube fixed within the trachea by a ligature. Spontaneous breathing was suppressed by pancuronium (0.8 mg/kg; 1 mL/kg body weight, i.v.) and animals were mechanically ventilated with a tidal volume of 10 mL/kg, breathing frequency of 90 breaths/minute and a positive end expiratory pressure of 3 cmH2O. Airway resistance, compliance, elastance and pressure volume loop was determined by means of a FlexiVent system supported by software version 7.2. To perform the lung function measurement the template “FlexiVent FX-Rat Default-rel.B” with the script “Rat 6basic_1loop v7.0 Lamb” was used. A deep inspiration to total lung capacity (Deep Inflation) was performed with an inflation pressure limited to 30 cmH2O. A “Snapshot-90 v7.0, Quick Prime-3 v7.0, PVS-V v7.0 and PVs-P v7.0 measurement was subsequently conducted. After the lung function measurement animals were euthanized by an overdose of Narcoren (0.16 g/5 ml, 1 ml/animal i.v.).
The right main bronchus was occluded with a ligature and the right lung was removed. […]
All data are presented as means±S.E.M. of n animals. Statistical differences between groups were analyzed by the non-clinical statistical group.

## [O-][S@+]1CCc2nc(N3CCC(c4ncc(Cl)cn4)CC3)nc(NC3(CO)CCC3)c21 [Compound of formula A′]
2.5 mg/kg oral twice daily, day 10 to day 20, μCT on day 18, bleomycin 1 mg/kg intratracheal, P<0.05
  improvement in tissue volume (ratio of remodeled tissue to total lung volume) measured by μCT: 64%
Oral twice daily, day 10 to day 20, FlexiVent, P<0.05
  restoration of lung volume measured at a pressure of 30 cmH2O: 31%
Oral twice daily, day 10 to day 20, OPN ELISA of right lung homogenate
  reduction of OPN levels in lung tissue: approx. 49%
Therapeutic rat model of bleomycin-induced lung fibrosis
  lung function: improved lung function
